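Grown in 96-well plates, cells were treated for 48 hours with each compound at five concentrations. Insufficient inhibition: endpoint recorded as highest concentration tested. TGI marks complete inhibition of growth.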
Experiments:
Test in all cases: NCI tumour cell line growth inhibition, 48 h
[1] = tested on: HCT-15 colon
[2] = tested on: 786-0 renal
[3] = tested on: A549 NSCLC
[4] = tested on: RPMI-8226 leukemia
[5] = tested on: SK-MEL-2 melanoma
[6] = tested on: NCI-H522 lung
[7] = tested on: UACC-257 melanoma
[8] = tested on: UACC-62 melanoma
[9] = tested on: NCI/ADR-RES ovarian
[10] = tested on: MDA-MB-435
[11] = tested on: PC-3 prostate
[12] = tested on: SW-620 colon
[13] = tested on: IGROV1 ovarian
[14] = tested on: SK-MEL-28 melanoma
[15] = tested on: OVCAR-5 ovarian
[16] = tested on: SR leukemia
[17] = tested on: BT-549 breast
[18] = tested on: A498 renal
[19] = tested on: K-562 leukemia
[20] = tested on: DU-145 prostate
[21] = tested on: KM12 colon
[22] = tested on: MDA-MB-231 breast
[23] = tested on: NCI-H23 lung
[24] = tested on: CAKI-1 renal
[25] = tested on: U251 CNS
[26] = tested on: NCI-H460 lung
[27] = tested on: SF-268 CNS
[28] = tested on: SNB-75 CNS
[29] = tested on: LOX IMVI melanoma
[30] = tested on: T-47D breast
[31] = tested on: UO-31 renal
[32] = tested on: SNB-19 CNS
[33] = tested on: SK-OV-3 ovarian
[34] = tested on: HS 578T breast
[35] = tested on: SK-MEL-5 melanoma
[36] = tested on: HOP-92 NSCLC
[37] = tested on: OVCAR-3 ovarian
[38] = tested on: HOP-62 NSCLC
[39] = tested on: COLO 205 colon
[40] = tested on: SN12C renal
[41] = tested on: TK-10 renal
[42] = tested on: RXF 393 renal
[43] = tested on: SF-295 CNS
[44] = tested on: MALME-3M melanoma
[45] = tested on: HCT-116 colon
[46] = tested on: MCF7 breast
[47] = tested on: NCI-H226 lung
[48] = tested on: OVCAR-4 ovarian
[49] = tested on: ACHN renal
[50] = tested on: EKVX NSCLC
[51] = tested on: M14 melanoma
[52] = tested on: HT29 colon
[53] = tested on: SF-539 CNS
[54] = tested on: HCC-2998 colon
[55] = tested on: MDA-N
[56] = tested on: OVCAR-8 ovarian
[57] = tested on: HL-60(TB) leukemia
[58] = tested on: CCRF-CEM leukemia
[59] = tested on: MOLT-4 leukemia

O=C(O)CCc1nc(-c2ccccc2-n2cccc2)no1
TGI [1]: > 100 µM | TGI [2]: > 100 µM | TGI [3]: > 100 µM | TGI [4]: > 100 µM | TGI [5]: > 100 µM | TGI [6]: > 100 µM | TGI [7]: > 100 µM | TGI [8]: > 100 µM | TGI [9]: > 100 µM | TGI [10]: 46.3 µM | TGI [11]: > 100 µM | TGI [12]: > 100 µM | TGI [13]: > 100 µM | TGI [14]: > 100 µM | TGI [15]: > 100 µM | TGI [16]: > 100 µM | TGI [17]: > 100 µM | TGI [18]: > 100 µM | TGI [19]: > 100 µM | TGI [20]: > 100 µM | TGI [21]: > 100 µM | TGI [22]: > 100 µM | TGI [23]: > 100 µM | TGI [24]: > 100 µM | TGI [25]: > 100 µM | TGI [26]: > 100 µM | TGI [27]: > 100 µM | TGI [28]: > 100 µM | TGI [29]: > 100 µM | TGI [30]: > 100 µM | TGI [31]: > 100 µM | TGI [32]: > 100 µM | TGI [33]: > 100 µM | TGI [34]: > 100 µM | TGI [35]: > 100 µM | TGI [36]: > 100 µM | TGI [37]: 86.3 µM | TGI [38]: > 100 µM | TGI [39]: > 100 µM | TGI [40]: > 100 µM | TGI [41]: > 100 µM | TGI [42]: > 100 µM | TGI [43]: > 100 µM | TGI [44]: > 100 µM | TGI [45]: > 100 µM | TGI [46]: > 100 µM | TGI [47]: > 100 µM | TGI [48]: > 100 µM | TGI [49]: > 100 µM | TGI [50]: > 100 µM | TGI [51]: > 100 µM | TGI [52]: > 100 µM | TGI [53]: > 100 µM | TGI [54]: > 100 µM | TGI [55]: > 100 µM | TGI [56]: > 100 µM

C=C1CC2[C@H](C)C(=O)CCC2(C)C2=C1C1CCC(C(C)CCC(=C)C(C)C(=O)O)C1(C)CC2=O (stereo partly drawn)
TGI [1]: > 100 µM | TGI [2]: 40.1 µM | TGI [3]: > 100 µM | TGI [5]: > 100 µM | TGI [6]: > 100 µM | TGI [7]: 96 µM | TGI [8]: > 100 µM | TGI [9]: > 100 µM | TGI [10]: > 100 µM | TGI [11]: > 100 µM | TGI [12]: > 100 µM | TGI [13]: > 100 µM | TGI [14]: > 100 µM | TGI [15]: > 100 µM | TGI [17]: > 100 µM | TGI [18]: > 100 µM | TGI [57]: 31.4 µM | TGI [19]: 28.7 µM | TGI [20]: > 100 µM | TGI [21]: > 100 µM | TGI [58]: 30.3 µM | TGI [22]: > 100 µM | TGI [23]: > 100 µM | TGI [24]: > 100 µM | TGI [25]: > 100 µM | TGI [26]: > 100 µM | TGI [59]: 63.1 µM | TGI [27]: > 100 µM | TGI [28]: > 100 µM | TGI [29]: 33.8 µM | TGI [30]: > 100 µM | TGI [31]: 99.4 µM | TGI [32]: > 100 µM | TGI [33]: > 100 µM | TGI [34]: > 100 µM | TGI [35]: > 100 µM | TGI [36]: 85.2 µM | TGI [37]: > 100 µM | TGI [38]: > 100 µM | TGI [39]: > 100 µM | TGI [40]: > 100 µM | TGI [41]: > 100 µM | TGI [42]: 86.4 µM | TGI [43]: > 100 µM | TGI [44]: > 100 µM | TGI [45]: > 100 µM | TGI [46]: > 100 µM | TGI [47]: > 100 µM | TGI [48]: > 100 µM | TGI [49]: > 100 µM | TGI [50]: > 100 µM | TGI [51]: > 100 µM | TGI [52]: > 100 µM | TGI [53]: > 100 µM | TGI [54]: > 100 µM | TGI [55]: > 100 µM | TGI [56]: > 100 µM

From PubChem BioAssay (NCI)
